Measurements taken from patent publication US7998995B2 (Exelixis Patent Company LLC, priority 2006, dated 2011).

These molecules were tested on T1, LXR (assay: Measured EC50 or IC50 for LXR (LXRα and/or LXRβ; assay and subtype not given)). Settings: IC50 or EC50 class, subtype not specified.
T1 construct: fused on or other part: GST fused to the LBD in the FRET assay
Procedure: Measured EC50 or IC50 for LXR, and FXR for Compounds of the Invention
LXR and FXR activities for various compounds of the invention are presented in the following table; those compounds with EC50 or IC50 values <10 μM for at least one of LXRα, LXRβ or FXR are considered to be active. In the following Table, IC50 or EC50 data is represented as follows: A<1 μM, B=1-10 μm, and C>10 μM.
With `CC(=O)c1cccc(NC(=O)Nc2cc(C(F)(F)F)nn2-c2ccccc2C(F)(F)F)c1` [Example 105, N-(3-acetylphenyl)-N′-{3-(trifluoromethyl)-1-[2-(trifluoromethyl)phenyl]-1H-pyrazol-5-yl}urea] the EC50 was > 10000 nM. For `O=C(NCc1cccc(C(F)(F)F)c1)c1cc(C(F)(F)F)nn1-c1ccccc1Cl` [Example 106, 1-(2-chlorophenyl)-3-(trifluoromethyl)-N-{[3-(trifluoromethyl)phenyl]methyl}-1H-pyrazole-5-carboxamide], the EC50 was > 10000 nM. An EC50 of 1000 to 10000 nM was found for `NS(=O)(=O)c1cccc(C#Cc2cc(C(F)(F)F)nn2-c2ccccc2Cl)c1` [Example 107, 3-{[1-(2-chlorophenyl)-3-(trifluoromethyl)-1H-pyrazol-5-yl]ethynyl}benzenesulfonamide] in this work. In the case of `CS(=O)(=O)c1cccc(C#Cc2cc(C(F)(F)F)nn2-c2ccccc2Cl)c1` [Example 108, 1-(2-chlorophenyl)-5-{[3-(methylsulfonyl)phenyl]ethynyl}-3-(trifluoromethyl)-1H-pyrazole], the EC50 is reported as < 1000 nM. `CS(=O)(=O)c1ccc(C#Cc2cc(C(F)(F)F)nn2-c2ccccc2Cl)cc1` [Example 109, 1-(2-chlorophenyl)-5-{[4-(methylsulfonyl)phenyl]ethynyl}-3-(trifluoromethyl)-1H-pyrazole] was tested, and the EC50 was < 1000 nM. An EC50 of 1000 to 10000 nM was found for `CS(=O)(=O)Cc1ccc(C#Cc2cc(C(F)(F)F)nn2-c2ccccc2Cl)cc1` [Example 110, 1-(2-chlorophenyl)-5-({4-[(methylsulfonyl)methyl]phenyl}ethynyl)-3-(trifluoromethyl)-1H-pyrazole] in this work. An EC50 of 1000 to 10000 nM was found for `FC(F)(F)c1cc(COc2ccc(-c3ccccc3)cc2)n(-c2ccccc2Cl)n1` [Example 111, 5-[(biphenyl-4-yloxy)methyl]-1-(2-chlorophenyl)-3-(trifluoromethyl)-1H-pyrazole] in this work. For `CS(=O)(=O)c1cccc(-c2ccc(OCc3nc(C(F)(F)F)cn3-c3c(Cl)cccc3Cl)cc2)c1` [Example 114, 1-(2,6-dichlorophenyl)-2-({[3′-(methylsulfonyl)biphenyl-4-yl]oxy}methyl)-4-(trifluoromethyl)-1H-imidazole], the EC50 was < 1000 nM. For `CS(=O)(=O)c1cccc(-c2ccc(COc3cc(C(F)(F)F)nn3-c3c(Cl)cccc3Cl)cc2)c1` [Example 116, 1-(2,6-dichlorophenyl)-5-({[3′-(methylsulfonyl)biphenyl-4-yl]methyl}oxy)-3-(trifluoromethyl)-1H-pyrazole], the EC50 was < 1000 nM. With `CS(=O)(=O)c1cccc(-c2ccc(COc3cc(C(F)(F)F)nn3-c3c(Cl)cccc3Cl)c(F)c2)c1` [Example 117, 1-(2,6-dichlorophenyl)-5-({[3-fluoro-3′-(methylsulfonyl)biphenyl-4-yl]methyl}oxy)-3-(trifluoromethyl)-1H-pyrazole] the EC50 was < 1000 nM. `CS(=O)(=O)c1cccc(NC(=O)c2cc(C(F)(F)F)nn2-c2ccccc2Cl)c1` [Example 611, 1-(2-chlorophenyl)-N-[3-(methylsulfonyl)phenyl]-3-(trifluoromethyl)-1H-pyrazole-5-carboxamide] was tested, and the EC50 was > 10000 nM. With `CS(=O)(=O)c1cccc(-c2ccc(OCc3cc(C(F)(F)F)nn3-c3c(Cl)cccc3Cl)cc2)c1` [Example 891, 1-(2,6-dichlorophenyl)-5-((3′-(methylsulfonyl)biphenyl-4-yloxy)methyl)-3-(trifluoromethyl)-1H-pyrazole] the EC50 was < 1000 nM. An EC50 of 1000 to 10000 nM was found for `CS(=O)(=O)c1cccc(-c2ccc(OCc3cc(C(F)(F)F)nn3-c3ccccc3Cl)c(Cl)c2)c1` [Example 908, 5-({[3-chloro-3′-(methylsulfonyl)biphenyl-4-yl]oxy}methyl)-1-(2-chlorophenyl)-3-(trifluoromethyl)-1H-pyrazole] in this work. For `Cc1cc(-c2cccc(S(C)(=O)=O)c2)ccc1OCc1cc(C(F)(F)F)nn1-c1ccccc1Cl` [Example 909, 1-(2-chlorophenyl)-5-({[3-methyl-3′-(methylsulfonyl)biphenyl-4-yl]oxy}methyl)-3-(trifluoromethyl)-1H-pyrazole], the EC50 was < 1000 nM.
